Measurements from patent US11485742B2, “2-azaspiro[3.4]octane derivatives as M4 agonists” (NOVARTIS AG, priority 2019, dated 2022).

Assays:
[1] = target: T1, human cloned CHRM4 receptor (Homo sapiens, UniProt P08173); test: CHRM4 Ca++ Flux Assay (M4_CHO cells, agonist mode); assay type: cell-based; details: for EC50: geometric mean if tested more than once, read-out: M4 FDSS EC50
T1 construct: expressed in transfected cells; host or cells: CHO-K1 (M4_CHO)
T1 sequence (P08173 1-479): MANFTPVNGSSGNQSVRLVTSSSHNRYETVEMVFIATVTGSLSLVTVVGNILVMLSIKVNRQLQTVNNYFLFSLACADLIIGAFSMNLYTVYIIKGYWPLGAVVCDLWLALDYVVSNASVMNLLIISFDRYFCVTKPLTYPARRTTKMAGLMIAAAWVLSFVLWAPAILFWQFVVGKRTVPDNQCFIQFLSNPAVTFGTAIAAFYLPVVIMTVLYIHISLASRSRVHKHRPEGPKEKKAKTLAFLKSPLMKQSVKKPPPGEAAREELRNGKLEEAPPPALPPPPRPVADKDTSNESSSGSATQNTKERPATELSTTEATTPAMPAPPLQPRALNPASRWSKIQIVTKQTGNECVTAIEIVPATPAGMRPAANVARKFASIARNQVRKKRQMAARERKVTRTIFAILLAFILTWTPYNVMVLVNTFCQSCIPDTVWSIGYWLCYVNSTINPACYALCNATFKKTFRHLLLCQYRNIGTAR
In short: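 Agonist-mode calcium flux in an M4-expressing CHO-K1 line: compounds were dosed at 11 points in triplicate and fluorescence was tracked for 3 min. Cells were preloaded with Ca++ dye and kept in −Ca/−Mg HBSS with 20 μM ATP for 60 min. Efficacy is scaled to carbachol EC100; EC50s come from four-parameter regression, geometric mean across runs.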

[2] = target: T2, human cloned CHRM2 receptor (Homo sapiens, UniProt P08172); test: CHRM2 Ca++ Flux Assay (M2_CHO cells, agonist mode); assay type: cell-based; details: M2 CHO cells; for EC50: agonist mode, geometric mean if tested more than once, read-out: M2 FDSS EC50
T2 construct: expressed in transfected cells; host or cells: CHO-K1 (M2_CHO)
T2 sequence (P08172 1-466): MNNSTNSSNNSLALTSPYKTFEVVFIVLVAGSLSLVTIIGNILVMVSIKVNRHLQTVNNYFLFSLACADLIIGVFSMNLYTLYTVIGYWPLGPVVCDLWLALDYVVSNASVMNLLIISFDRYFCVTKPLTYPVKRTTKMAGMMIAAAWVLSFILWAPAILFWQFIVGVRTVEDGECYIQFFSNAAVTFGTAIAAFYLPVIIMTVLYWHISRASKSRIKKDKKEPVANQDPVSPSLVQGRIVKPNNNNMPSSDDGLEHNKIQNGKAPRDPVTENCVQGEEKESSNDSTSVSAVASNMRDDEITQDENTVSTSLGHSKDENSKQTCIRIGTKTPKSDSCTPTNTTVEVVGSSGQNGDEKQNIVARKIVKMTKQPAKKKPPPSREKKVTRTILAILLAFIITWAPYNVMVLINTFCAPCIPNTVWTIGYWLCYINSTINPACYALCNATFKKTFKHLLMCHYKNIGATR
In short: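 Agonist activity was expressed as percent of the carbachol EC100 response, fitted by four-parameter regression on triplicate wells, with geometric means across repeat runs. Calcium traces over 3 minutes came from dye-loaded M2_CHO cells (12K/well) pre-incubated 60 min in Ca/Mg-free HBSS with 20 mM HEPES, 2.5 mM probenecid and 20 μM ATP.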

Row | Compound | M4 FDSS PA % ([1]; Percent Activity (PA)) [%] | EC50 [1] [nM] | EC50 [2] [nM] | M2 FDSS PA % ([2]; Percent Activity (PA) measured to EC100 of Carbachol) [%] | Emax ([1]; Percent Activity (PA), read-out: M4 FDSS PA %) [%] | Emax ([2]; Percent Activity (PA) measured to EC100 of Carbachol, read-out: M2 FDSS PA %) [%]
1 | Fc1ccc([C@H]2CCOC2)c(C2CCN([C@@H]3COC4(C3)CN(c3nnco3)C4)CC2)c1 (single isomer, unassigned) [Example 3F, (S)-7-(4-(5-fluoro-2-((R)-tetrahydrofuran-3-yl)phenyl)piperidin-1-yl)-2-(1,3,4-oxadiazol-2-yl)-5-oxa-2-azaspiro[3.4]octane or (S)-7-(4-(5-fluoro-2-((S)-tetrahydrofuran-3-yl)phenyl)piperidin-1-yl)-2-(1,3,4-oxadiazol-2-yl)-5-oxa-2-azaspiro[3.4]octane] | 80 | 23 | 406 | 49 | – | –
2 | Fc1cc(F)c(OCC2COC2)c(C2CCN([C@@H]3COC4(C3)CN(c3nnco3)C4)CC2)c1 [Example 2DD, (S)-7-(4-(3,5-difluoro-2-(oxetan-3-ylmethoxy)phenyl)piperidin-1-yl)-2-(1,3,4-oxadiazol-2-yl)-5-oxa-2-azaspiro[3.4]octane] | – | 155 | 6760 | – | 64 | 23
